Test results reported in patent US5691338A, “1,2-dithiole-3 thiones for the treatment of reverse transcriptase-dependent viral infections” (priority 1995, dated 1997).
Like-named read-outs stand apart in the source and are kept apart here.

Biological target: T1, HIV-1 reverse transcriptase (RT) (Human immunodeficiency virus type 1 group M subtype B, UniProt P04585)
T1 construct: Recombinant HIV-1 reverse transcriptase (RT) was obtained from Worthington (Freehold, N.J.); purchased Worthington (Freehold, N.J.)
Test: Inhibition of recombinant HIV-1 reverse transcriptase (TTP incorporation)
Type: biochemical
Settings: for Ki: Segal transformation of Dixon plots
Procedure: Reverse transcriptase assays were performed as described by Flexner, et al. (25) using recombinant HIV-1 RT as the source of enzyme. Dilutions and assay were carried out in 96-well "half-area" plates. The enzyme with various concentrations of test compounds were dissolved in DPBS containing 1% w/v BSA and diluted in 50 μl volumes; 10 μl aliquots in triplicate were transferred to another plate for the enzyme assay. The reactions were initiated by the addition of 25 μl/well of buffer containing 50 mM Tris.cndot.Cl (pH 8.0), 75 mM KCl, 1 mM dithiothreitol, 2 mM MgCl2, 5 μg/ml poly(A), 2.5 μg/ml oligo (dT), 10 μCi/ml ^32 p TTP with or without unlabeled TTP. […] TTP incorporation was measured by spotting 20 μl of the reaction cocktail onto DE81 paper, washing the paper with 4×5 min washes of 300 mM NaCl and 30 mM sodium citrate (pH 7.0), drying the paper, and counting the paper by liquid scintillation counting. The assays performed with oltipraz and 1,2-dithiole-3-thione contained 0.29% final concentration DMSO. This concentration of DMSO had no effect on RT activity.

[1] = Dixon plots, listed as oltipraz

## Cc1c(-c2cnccn2)ssc1=S [compound 11, 4-methyl-5-(2-pyrazinyl)-1,2-dithiole-3-thione]
[1]
  type of inhibition with respect to TTP: non-competitive inhibitor
  type of inhibition with respect to poly(A):oligo(dT): mixed inhibitor
N=2 experiments, read-out: Ki with respect to TTP
  Ki: 183 ± 50 µM
N=3 experiments, read-out: Ki with respect to poly(A):oligo(dT)
  Ki: 189 ± 29 µM
Moderate to high levels of inhibition
  synergy as inhibitors of reverse transcriptase: synergistically with AZT 5'-triphosphate
poly(A):oligo(dT) and TTP as substrates
  inhibition of recombinant HIV-1 reverse transcriptase: inhibitor
